Laboratory results as given in patent US6548666B1, “Tricyclic compounds and their use in medicine process for their preparation and pharmaceutical compositions containing them” (Dr. Reddy's Research Foundation, priority 1997, dated 2003).

Legend:
hPPARγ1 = molecular target: T1, hPPARγ1 (Homo sapiens, UniProt P37231); experiment: Determination of hPPARγ activity (GAL4 fusion luciferase reporter, HEK-293); assay type: cell-based; details: 1 μM compound; HEK-293 cells, GAL4-hPPARγ1 LBD reporter
T1 construct: expressed in transfected cells; host or cells: HEK-293
T1 sequence (P37231 238-503 limits assumed): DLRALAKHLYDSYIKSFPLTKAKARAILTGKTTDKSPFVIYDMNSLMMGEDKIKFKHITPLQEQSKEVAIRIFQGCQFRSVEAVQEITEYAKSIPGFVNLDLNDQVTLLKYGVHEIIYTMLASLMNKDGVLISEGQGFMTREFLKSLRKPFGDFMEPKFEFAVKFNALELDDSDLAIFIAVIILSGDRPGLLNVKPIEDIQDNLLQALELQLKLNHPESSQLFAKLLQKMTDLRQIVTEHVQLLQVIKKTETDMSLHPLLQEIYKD
Description: (§1) Ligand binding domain of hPPARγ1 was fused to DNA binding domain of Yeast transcription factor GAL4 in eucaryotic expression vector. Using lipofectamine (Gibco BRL, USA) as transfecting reagent HEK-293 cells were transfected with this plasmid and a reporter plasmid harboring the luciferase gene driven by a GAL4 specific promoter. Compound was added at 1 μM concentration after 48 hrs of transfection and incubated overnight.

Swiss albino mice = experiment: Plasma triglyceride lowering activity in Swiss albino mice and Guinea pigs; assay type: in vivo, mouse; details: dose 1 mg (mg/kg), oral, 6 days; table follows the Swiss albino mice / Guinea pig section
Description: Male Swiss albino mice (SAM) and male Guinea pigs were obtained from NIN and housed in DRF animal house. All these animals were maintained under 12 hour light and dark cycle at 25±1° C. Animals were given standard laboratory chow (NIN, Hyderabad, India) and water, ad libitum, SAM of 20-25 g body weight range and Guinea pigs of 500-700 g body weight range were used (Oliver, P., Plancke, M. O., Marzin. D., Clavey, V., Sauzieres, J and Fruchart, J. C. Effects of fenofibrate, gemfibrozil and nicotinic acid on plasma lipoprotein levels in normal and hyperlipidemic mice. Atherosclerosis. 1988. 70: 107-114).
The test compounds were administered orally to Swiss albino mice at 0.3 to 30 mg/kg/day dose for 6 days. Control mice were treated with vehicle (0.25% Carboxymethylcellulose; dose 10 mL/kg). The test compounds were administered orally to Guinea pigs at 0.3 to 30 mg/kg/day dose for 6 days. Control animals were treated with vehicle (0.25% Carboxymethylcellulose; dose 5 mL/kg).
The blood samples were collected in fed state 1 hour after drug administration on 0 and 6 day of treatment. The blood was collected from the retro-orbital sinus through heparinised capillary in EDTA containing tubes. After centrifugation, plasma sample was separation for triglyceride and total cholesterol (Wieland, O. Methods of Enzymatic analysis. Bergemeyer, H. O., Ed., 1963. 211-214; Trinder, P. Ann. Clin. Biochem. 1969. 6: 24-27). Measurement of plasma triglyceride, total cholesterol and HDL were done using commercial kits (Dr. Reddy's Diagnostic Division, Hyderabad, India).
(§2) 1. Percent reduction in Blood sugar/triglycerides/total cholesterol were calculated according to the formula: [formula]

hPPARα = molecular target: T2, hPPARα (Homo sapiens, UniProt Q07869); experiment: Determination of hPPARα activity (GAL4 fusion luciferase reporter, HEK-293); assay type: cell-based; details: 50 μM compound; HEK-293 cells, GAL4-hPPARα LBD reporter
T2 construct: expressed in transfected cells; host or cells: HEK-293
T2 sequence (Q07869 239-466 limits assumed): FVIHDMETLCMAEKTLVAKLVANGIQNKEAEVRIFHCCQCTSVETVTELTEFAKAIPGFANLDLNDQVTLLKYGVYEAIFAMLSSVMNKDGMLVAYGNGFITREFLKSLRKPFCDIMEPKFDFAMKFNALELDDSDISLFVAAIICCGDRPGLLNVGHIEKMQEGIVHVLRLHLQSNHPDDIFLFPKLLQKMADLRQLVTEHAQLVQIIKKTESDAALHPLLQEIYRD
Description: as §1, with “hPPARα” for “hPPARγ1”, “superfect (Qiagen, Germany)” for “lipofectamine (Gibco BRL, USA)”, “different concentrations” for “1 μM concentration”, “42” for “48”

C57BL/KsJ-db/db mice = experiment: Blood sugar and triglyceride lowering in db/db mice; assay type: in vivo, mouse
From the text: Mutation in colonies of laboratory animals and different sensitivities to dietary regimens have made the development of animal models with non-insulin dependent diabetes and hyperlipidemia associated with obesity and insulin resistance possible. Genetic models such as db/db and ob/ob (Diabetes, (1982) 31 (1): 1-6) mice and zucker fa/fa rates have been developed by the various laboratories for understanding the pathophysiology of disease and testing the efficacy of new antidiabetic compounds (Diabetes, (1983) 32: 830-838; Annu. Rep. Sankyo Res. Lab. (1994). 46: 1-57). The homozygous animals, C57 BL/KsJ-db/db mice developed by Jackson Laboratory, U.S., are obese, hyperglycemic, hyperinsulinemic and insulin resistant (J. Clin. Invest., (1990) 85: 962-967), whereas heterozygous are lean and normoglycemic. In db/db model, mouse progressively develops insulinopenia with age, a feature commonly observed in late stages of human type II diabetes when blood sugar levels are insufficiently controlled. The state of pancreas and its course vary according to the models. Since this model resembles that of type II diabetes mellitus, the compounds of the present invention were tested for blood sugar and triglycerides lowering activities.
Male C57BL/KsJ-db/db mice of 8 to 14 weeks age, having body weight range of 35 to 60 grams, bred at Dr. Reddy's Research Foundation (DRF) animal house, were used in the experiment. The mice were provided with standard feed (National Institute of Nutrition (NIN), Hyderabad, India) and acidified water, ad libitum. The animals having more than 350 mg/dl blood sugar were used for testing. The number of animals in each group was 4.
Test compounds were suspended on 0.25% carboxymethyl cellulose and administered to test group at a dose of 0.1 mg to 30 mg/kg through oral gavage daily for 6 days. The control group received vehicle (dose 10 mL/kg). On 6 th day the blood samples were collected one hour after administration of test compounds/vehicle for assessing the biological activity.
The random blood sugar and triglyceride levels were measured by collecting blood ([…]) through orbital sinus, using heparinised capillary in tubes containing EDTA which was centrifuged to obtain plasma. The plasma glucose and triglyceride levels were measured spectrometrically, by glucose oxidase and glycerol-3-PO4 oxidase/peroxidase enzyme (Dr. Reddy's Lab. Diagnostic Division Kits, Hyderabad, India) methods respectively.
The blood sugar and triglycerides lowering activities of the test compound was calculated according to the formula.
as §2

[1] = 1 mg/kg oral gavage daily for 6 days
[2] = 10 mg/kg oral gavage daily for 6 days
[3] = 3 mg/kg oral gavage daily for 6 days

Molecule | PPARγ (fold activation, luciferase activity) (hPPARγ1) [Fold] | Triglyceride Lowering (%) (Swiss albino mice) | PPARα (fold activation, luciferase activity) (hPPARα) [Fold] | Reduction in Blood Glucose Level (%) (C57BL/KsJ-db/db mice; [1]) | Triglyceride Lowering (%) (C57BL/KsJ-db/db mice; [1]) | other results
CC(Cc1ccc(OCCN2c3ccccc3Oc3ccccc32)cc1)(Oc1ccccc1)C(=O)[O-].[Na+] (racemic) [Example 30, (±)3-[4-[2-(Phenoxazin-10-yl)ethoxy]phenyl]-2-phenoxy-2-methylpropanoic acid, sodium salt] | 13.9 | 58 | 9.3 | 44 | 05 | –
CCOC(Cc1ccc(OCCN2c3ccccc3Sc3ccccc32)cc1)C(=O)O (racemic) [Example 11, (±) 3-[4-[2-(Phenothiazin-10-yl)ethoxy]phenyl]-2-ethoxypropanoic acid] | 5.20 | – | 6.42 | – | – | Reduction in Blood Glucose Level (%) (C57BL/KsJ-db/db mice; [2]): 66%; Triglyceride Lowering (%) (C57BL/KsJ-db/db mice; [2]): 50%
CCOC(Cc1ccc2oc(CN3c4ccccc4Sc4ccccc43)cc2c1)C(=O)[O-].[Na+] (racemic) [Example 14, (±) 3-[2-(Phenothiazin-10-yl)methylbenzofuran-5-yl]-2-ethoxypropanoic acid, sodium salt] | – | – | – | – | – | Reduction in Blood Glucose Level (%) (C57BL/KsJ-db/db mice; [3]): 52%; Triglyceride Lowering (%) (C57BL/KsJ-db/db mice; [3]): 61%
(−) 3-[4-[2-(Phenoxazin-10-yl)ethoxy]phenyl]-2-ethoxypropanoic acid, magnesium salt [Example 25] | – | 6 | – | – | – | –
CCOC(Cc1ccc(OCCN2c3ccccc3Oc3ccccc32)cc1)C(=O)O.N=C(N)NCCC[C@H](N)C(=O)O (single isomer, unassigned; (-)) [Example 28, (−) 3-[4-[2-(Phenoxazin-10-yl)ethoxy]phenyl]-2-ethoxypropanoic acid, arginine salt] | – | 22 | – | 40 | 40 | –
